Reference: patent US6949542B2, “Dihydro-benzo[b][1,4]diazepin-2-one derivatives” (Hoffman-La Roche Inc., priority 2002, dated 2005)
Where two headings read alike, the source gives them in different places.

Legend:
[1] = target: T1, rat mGlu2 receptor (Rattus norvegicus, UniProt P31421); assay: [3H]-LY354740 binding on mGlu2 transfected CHO cell membranes
T1 construct: expressed in transfected cells; vector pcD1mGR2

[2] = inhibition of 10 nM [3H]-LY354740 binding, mGlu2 transfected CHO cell membranes, room temperature, 1 hour, read-out: Ki mGlu2

T1 sequence (P31421 19-872): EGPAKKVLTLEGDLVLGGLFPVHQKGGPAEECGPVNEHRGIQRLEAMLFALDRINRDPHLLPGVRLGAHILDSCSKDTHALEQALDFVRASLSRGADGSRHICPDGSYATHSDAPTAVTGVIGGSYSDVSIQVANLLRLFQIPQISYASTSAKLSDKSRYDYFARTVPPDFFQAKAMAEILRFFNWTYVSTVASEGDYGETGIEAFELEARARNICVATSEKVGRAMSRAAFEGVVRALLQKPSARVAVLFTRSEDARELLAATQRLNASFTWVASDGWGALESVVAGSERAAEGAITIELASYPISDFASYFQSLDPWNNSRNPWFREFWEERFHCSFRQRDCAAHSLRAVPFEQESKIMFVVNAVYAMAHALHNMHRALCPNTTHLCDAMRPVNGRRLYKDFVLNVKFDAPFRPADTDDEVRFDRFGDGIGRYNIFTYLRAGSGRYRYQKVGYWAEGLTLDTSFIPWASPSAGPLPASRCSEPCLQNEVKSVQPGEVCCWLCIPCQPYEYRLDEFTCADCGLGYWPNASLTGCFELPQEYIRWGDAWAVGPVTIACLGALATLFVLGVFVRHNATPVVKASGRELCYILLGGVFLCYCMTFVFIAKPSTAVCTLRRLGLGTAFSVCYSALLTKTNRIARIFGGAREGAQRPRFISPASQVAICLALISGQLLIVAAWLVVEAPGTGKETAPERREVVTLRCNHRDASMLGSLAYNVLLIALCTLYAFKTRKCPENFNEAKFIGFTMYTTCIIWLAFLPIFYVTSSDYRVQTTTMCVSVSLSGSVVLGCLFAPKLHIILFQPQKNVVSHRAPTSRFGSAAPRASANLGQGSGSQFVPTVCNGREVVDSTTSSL

Row | Compound | Ki [1, 2] | melting point | Ki [1]
1 | Cc1nccc(-c2cccc(C3=Nc4cc(N(C)C)c(C(F)(F)F)cc4NC(=O)C3)c2)n1 [Example 303, 7-Dimethylamino-4-[3-(2-methyl-pyrimidin-4-yl)-phenyl]-8-trifluoromethyl-1,3-dihydro-benzo[b][1,4]diazepin-2-one] | 45 nM | 211 to 212 °C | –
2 | CC(C)CNc1cc2c(cc1C(F)(F)F)NC(=O)CC(c1cccc(-c3ccncc3)c1)=N2 [Example 63, 7-Isobutylamino-4-(3-pyridin-4-yl-phenyl)-8-trifluoromethyl-1,3-dihydro-benzo[b][1,4]diazepin-2-one] | 19 nM | 198 °C | –
3 | O=C1CC(c2cccc(-c3ccccn3)c2)=Nc2cc(Cl)c(Cl)cc2N1 [Example 5, 7,8-Dichloro-4-(3-pyridin-2-yl-phenyl)-1,3-dihydro-benzo[b][1,4]diazepin-2-one] | 23.5 nM | 239 °C | –
4 | COc1cc2c(cc1C(F)(F)F)NC(=O)CC(c1cccc(-c3ccccn3)c1)=N2 [Example 42, 7-Methoxy-4-(3-pyridin-2-yl-phenyl)-8-trifluoromethyl-1,3-dihydro-benzo[b][1,4]diazepin-2-one] | 27 nM | 240 °C | –
5 | CCCN(C)c1cc2c(cc1C(F)(F)F)NC(=O)CC(c1cccc(-c3ccnc(C)c3)c1)=N2 [Example 80, 7-(Methyl-propyl-amino)-4-[3-(2-methyl-pyridin-4-yl)-phenyl]-8-trifluoromethyl-1,3-dihydro benzo[b][1,4]diazepin-2-one] | 5.5 nM | 192 °C | –
6 | O=C1CC(c2cccc(-c3ccc[n+]([O-])c3)c2)=Nc2cc(OCC(F)(F)F)c(C(F)(F)F)cc2N1 [Example 357, 4-[3-(1-Oxy-pyridin-3-yl)-phenyl]-7-(2,2,2-trifluoro-ethoxy)-8-trifluoromethyl-1,3-dihydro-benzo[b][1,4]diazepin-2-one] | 6.1 nM | 226 °C | –
7 | Cc1cc2c(cc1C(F)(F)F)NC(=O)CC(c1cccc(-c3ccnc(N4CCOCC4)c3)c1)=N2 [Example 387, 7-Methyl-4-[3-(2-morpholin-4-yl-pyridin-4-yl)-phenyl]-8-trifluoromethyl-1,3-dihydro-benzo[b][1,4]diazepin-2-one] | – | 240 to 242 °C | 14.5 nM
8 | Cc1ccc(-c2cccc(C3=Nc4ccc(-c5ccccc5F)cc4NC(=O)C3)c2)cn1 [Example 12, 8-(2-Fluoro-phenyl)-4-[3-(6-methyl-pyridin-3-yl)-phenyl]-1,3-dihydro-benzo[b][1,4]diazepin-2-one] | 3.9 nM | 206 to 209 °C | –
9 | O=C1CC(c2cccc(-c3cccnc3)c2)=Nc2ccc(OCC(F)(F)F)cc2N1 [Example 197, 4-(3-Pyridin-3-yl-phenyl)-8-(2,2,2-trifluoro-ethoxy)-1,3-dihydro-benzo[b][1,4]diazepin-2-one] | 10 nM | 156 °C | –
10 | COCCNc1nc(C)cc(-c2cccc(C3=Nc4cc(N(C)C)c(C(F)(F)F)cc4NC(=O)C3)c2)n1 [Example 326, 7-Dimethylamino-4-{3-[2-(2-methoxy-ethylamino)-6-methyl-pyrimidin-4-yl]-phenyl}-8-trifluoromethyl-1,3-dihydro-benzo[b][1,4]diazepin-2-one] | 8 nM | 200 to 203 °C | –

Now from value to compound, other results behind:

Row | Ki [1, 2] | melting point | Compound | Ki [1]
11 | 3.6 nM | 202 °C | Cc1cc(-c2cccc(C3=Nc4cc(OCC(F)(F)F)c(C(F)(F)F)cc4NC(=O)C3)c2)c(C)cn1 [Example 138, 4-[3-(2,5-Dimethyl-pyridin-4-yl)-phenyl]-7-(2,2,2-trifluoro-ethoxy)-8-trifluoromethyl-1,3-dihydro-benzo[b][1,4]diazepin-2-one] | –
12 | 3.4 nM | 240 °C | O=C1CC(c2cccc(-c3ccncc3)c2)=Nc2cc(Cl)c(Cl)cc2N1 [Example 2, 7,8-Dichloro-4-(3-pyridin-4-yl-phenyl)-1,3-dihydro-benzo[b][1,4]diazepin-2-one] | –
13 | 1.55 nM | 221 to 222 °C (dec.) | O=C1CC(c2cccc(-c3ccncc3)c2)=Nc2cc(OCC(F)(F)F)c(C(F)(F)F)cc2N1 [Example 37, 4-(3-Pyridin-4-yl-phenyl)-7-(2,2,2-trifluoro-ethoxy)-8-trifluoromethyl-1,3-dihydro-benzo[b][1,4]diazepin-2-one] | –
14 | 2.8 nM | 221 °C | Cc1cc2c(cc1C(F)(F)F)N=C(c1cccc(-c3cccnc3)c1)CC(=O)N2 [Example 25, 8-Methyl-4-(3-pyridin-3-yl-phenyl)-7-trifluoromethyl-1,3-dihydro-benzo[b][1,4]diazepin-2-one] | –
